# Laboratory results: patent US10947202B2, “Sodium ion channel inhibitors and pharmaceutically acceptable salts and polymorphs thereof and uses thereof” (SHANGHAI HAIYAN PHARMACEUTICAL TECHNOLOGY CO., LTD., priority 2017, dated 2021)
# Read-outs that look alike come from different tables or passages of the source.
# How the values were obtained:
# [1] = biological target: T1, hERG potassium ion channel (Homo sapiens, UniProt Q12809); experiment: Effect on the hERG potassium ion channel (CHO hERG cells, manual patch clamp); format: cell-based
# T1 construct: host or cells: CHO (CHO hERG, passage P15)
# Experimental: 2.1.1 Cells used in this experiment are CHO cell lines (supplied by Sophion Bioscience, Denmark) which are hERG cDNA transfectant and stably express hERG channels, cell progeny is P15. Cells are cultured in medium containing the following ingredients Invitrogen): Ham's F12 medium, 10% (v/v) inactivated fetal bovine serum, […] hygromycin B, […] Geneticin.
# 2.1.2 CHO hERG cells were grown in Petri dishes containing the above medium and cultured in an incubator containing 5% CO2 at 37° C. CHO hERG cells were transferred onto round glass plates in Petri dishes, and grown on the same culture medium and culture conditions as above 24 h to 48 h prior to the electrophysiological experiments, and the density of CHO hERG cells on each round glass plate needs to meet the requirements that the vast majority of cells are independent and individual.
# The following solutions (supplied by Sophion) were used for electrophysiological recording. The reagents used in this test were provided by Sigma.
# In this experiment, whole-cell current recording was performed using a manual patch clamp system (HEKA EPC-10 signal amplification and digital conversion system, purchased from HEKA Electronic, Germany). The round glass slide of which surface CHO hERG cells were grown on was placed in an electrophysiological recording slot under an inverted microscope. Perfused steadily with extracellular fluid in recording slot (approximately 1 ml per minute). A conventional whole-cell patch clamp current recording technique was used in the experiment. Unless otherwise specified, experiments were performed at normal room temperature (about 25° C.). Cell clamping was at −80 mV. […] The hERG potassium current recorded in the above steps could be superfused for test drug after the steady perfusion state of the extracellular fluid in the recording slot had been stabilized until the inhibition of the hERG current by the drug reached a steady state. […]
# The test data were analyzed by the data analysis software provided by HEKA Patchmaster (V2x73.2), Microsoft Excel and Graphpad Prism 5.0.
# Solubility experiment = format: physicochemical; details: listed as free base sample
# Experimental: The solubility of crystal forms A, D, E-1, E-3, F and free base sample in buffer of 0.1M HCl, pH 4.5, pH 6.8 and water was tested at room temperature. In the test, the standard curves of free base sample and five crystal forms were plotted. Subsequently, 6 mg of API and five crystal form samples were weighed, respectively, and 2 ml of the solvent was added, the mixture was shaken at room temperature for 4 h, then ultrasonicated for 30 min, centrifuged, and the supernatant was taken out, filtered through a 0.45 μm filter and injected, and the solubility was measured, the results are shown in Table 28 (concentration is in mg/ml).
# T1 sequence (Q12809 whole entry): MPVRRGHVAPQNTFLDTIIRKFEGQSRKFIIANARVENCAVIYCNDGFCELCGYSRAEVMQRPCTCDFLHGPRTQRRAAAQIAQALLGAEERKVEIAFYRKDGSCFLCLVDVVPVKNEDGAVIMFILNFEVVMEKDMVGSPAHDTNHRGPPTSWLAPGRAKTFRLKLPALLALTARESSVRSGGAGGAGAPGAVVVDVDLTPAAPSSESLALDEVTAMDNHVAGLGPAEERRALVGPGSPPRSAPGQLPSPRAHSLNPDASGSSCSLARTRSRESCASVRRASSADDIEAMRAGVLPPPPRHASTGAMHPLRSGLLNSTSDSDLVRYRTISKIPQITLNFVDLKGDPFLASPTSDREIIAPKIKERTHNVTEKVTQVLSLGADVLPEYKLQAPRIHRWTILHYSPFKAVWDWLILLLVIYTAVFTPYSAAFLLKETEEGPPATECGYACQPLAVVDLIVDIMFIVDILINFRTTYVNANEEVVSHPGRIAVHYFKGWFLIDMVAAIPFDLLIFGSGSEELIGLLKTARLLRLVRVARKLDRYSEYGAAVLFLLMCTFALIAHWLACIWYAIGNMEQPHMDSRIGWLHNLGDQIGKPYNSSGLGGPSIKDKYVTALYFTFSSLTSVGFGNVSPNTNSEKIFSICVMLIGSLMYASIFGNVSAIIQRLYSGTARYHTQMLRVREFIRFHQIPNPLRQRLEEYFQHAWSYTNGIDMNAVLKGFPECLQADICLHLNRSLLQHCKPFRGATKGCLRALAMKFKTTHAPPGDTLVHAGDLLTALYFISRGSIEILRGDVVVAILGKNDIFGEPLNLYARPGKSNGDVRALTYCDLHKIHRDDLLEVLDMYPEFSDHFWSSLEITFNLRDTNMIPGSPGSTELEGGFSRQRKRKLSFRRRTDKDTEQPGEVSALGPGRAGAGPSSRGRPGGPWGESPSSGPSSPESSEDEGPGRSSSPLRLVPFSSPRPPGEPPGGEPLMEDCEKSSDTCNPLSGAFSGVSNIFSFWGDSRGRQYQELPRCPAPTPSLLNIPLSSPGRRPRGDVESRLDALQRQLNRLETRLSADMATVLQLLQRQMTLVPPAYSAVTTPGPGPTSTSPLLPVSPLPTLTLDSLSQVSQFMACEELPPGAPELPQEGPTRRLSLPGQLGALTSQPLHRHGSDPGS
smiles,measurement,setting,value
"Cc1cc(N2CCN(Cc3cc(F)c(C(=O)NS(=O)(=O)C4CC4)cc3Cl)CC2)ccc1Cl [the free base of formula X compound, 5-chloro-4-((4-(4-chloro-3-methylphenyl)piperazin-1-yl)methyl)-N-(cyclopropylsulfonyl)-2-fluorobenzamide]",inhibitory activity on the hERG potassium ion channel,[1],little inhibitory activity
same,IC50,[1]; read-out: hERG inhibitory concentration IC50,> 10000 nM
same,IC50,[1]; read-out: hERG potassium ion channel (IC50/nM),> 10000 nM
same,Solubility (mg/mL) 0.1M HCl,"Solubility experiment; 0.1M HCl, room temperature",0.065 mg/mL
same,Solubility (mg/mL) pH4.5,"Solubility experiment; buffer pH 4.5, room temperature",0.001 mg/mL
same,Solubility (mg/mL) pH6.8,"Solubility experiment; buffer pH 6.8, room temperature",0.021 mg/mL
same,Solubility (mg/mL) H2O,"Solubility experiment; water, room temperature",0.027 mg/mL
